# Key:
# [1] = Preparation of solutions: solubility of Form 1 in solvents; conditions: for Volume Added: 50 mg Form 1, aliquots with heating to 50° C. until clear solution
# Description: Preparation of Solutions of Bendamustine Hydrochloride
# 50 mg of bendamustine hydrochloride Form 1 was weighed into a screw-top vial. Solvent was added in aliquots (with heating to 50° C.) until a clear solution was obtained.
# [2] = Maturation Experiment (slurry of Form 1 in solvents, XRPD); type: physicochemical; conditions: slurry 48 hours, 4 hour periods at 50 C and ambient
# Description: Approximately 10 mg of Form 1 bendamustine hydrochloride was slurried in the solvents list in Table 3. The slurries were shaken for 48 hours with alternating 4 hour periods at 50 C and ambient temperature. Any solid material was then isolated by filtration and analyzed by XRPD. Solutions were allowed to evaporate.
# [3] = Stability of Forms 1 and 2 (temperature/humidity storage, XRPD); type: physicochemical
# Description: Stability of Forms 1 and 2 of Bendamustine Hydrochloride
# 10 mg of bendamustine hydrochloride Form 1 (A), bendamustine hydrochloride Form 2 (B), and a 1:1 mixture of Forms 1 and 2 (C) were stored under the conditions listed in Table 7. Samples were analyzed by XRPD at 1 day, 2 week, and 6 week time points. […] The rate of this conversion appears to increase with temperature. The purity of Forms 1 and 2 after storage at 4° C./87% RH (5) and 60° C./75% RH (13) for 6 weeks was measured.
# [4] = Thermodynamic Aqueous Solubility by HPLC; type: physicochemical
# Description: Thermodynamic Aqueous Solubility by HPLC
# Aqueous solubility was determined by suspending sufficient compound in 0.25 ml of water to give a maximum final concentration of ≧10 mg·ml^−1 of the parent free-form of the compound. The suspension was equilibrated at 25° C. for 24 hours (unless otherwise stated) after which the pH was measured. The suspension was then filtered through a glass fibre C filter into a 96 well plate. The filtrate was then diluted by a factor of 100 times. Quantitation was by HPLC with reference to a standard solution of approximately 0.1 mg·ml-1 in DMSO. Different volumes of the standard, diluted and undiluted sample solutions were injected. The solubility was calculated using the peak areas determined by integration of the peak found at the same retention time as the principal peak in the standard injection.
# [5] = Light Stability (Suntest Light Box); type: physicochemical; conditions: for Purity (%): HPLC
# Description: Light Stability of Bendamustine Hydrochloride
# Samples of Form 1 and Form 2 of Bendamustine Hydrochloride were stressed in a Suntest Light Box with a light intensity of 250 watts/m2 for 1 week with the black body temperature set to 25° C. A blank of each sample, wrapped in foil for protection, was also included in the experiment. After the experiment, samples were analyzed by XRPD and the purity was determined by HPLC.
# [6] = Storage of solid forms under temperature/humidity or ambient conditions, XRPD re-analysis; type: physicochemical
# [7] = Log P Determination (potentiometric titration, octanol:ISA water); type: physicochemical
# Source text: Data were collected by potentiometric titration on a Sirius GlpKa instrument using three ratios of octanol:ionic-strength adjusted (ISA) water to generate Log P, Log Pion, and Log D values. The data were refined using Refinement Pro software v1.0. Prediction of Log P values was made using ACD v9 and Syracuse KOWWIN v1.67 software.
# [8] = Gravimetric Vapor Sorption (GVS); type: physicochemical
# Description: Gravimetric Vapor Sorption (GVS)
# Sorption isotherms were obtained using a Hiden IGASorp moisture sorption analyser, controlled by CFRSorp software. The sample temperature was maintained at 25° C. by a Huber recirculating water bath. The humidity was controlled by mixing streams of dry and wet nitrogen, with a total flow rate of 250 ml·min-1. The relative humidity was measured by a calibrated Vaisala RH probe (dynamic range of 0-95% RH), located near the sample. The weight change, (mass relaxation) of the sample as a function of % RH was constantly monitored by themicrobalance (accuracy ±0.001 mg). Typically 1-3 mg of sample was placed in a tared mesh stainless steel basket under ambient conditions. The sample was loaded and unloaded at 40% RH and 25° C. (typical room conditions). A moisture sorption isotherm was performed as outlined below (2 scans giving 1 complete cycle). The standard isotherm was performed at 25° C. at 10% RH intervals over a 0-90% RH range.
# The software uses a least squares minimization procedure together with a model of the mass relaxation, to predict an asymptotic value. The measured mass relaxation value must be within 5% of that predicted by the software before the next % RH value is selected. The minimum equilibration time was set to 1 hour and the maximum to 4 hours.
# [9] = light stressed, 250 watts/m2, 1 week, hydrochloride
smiles,measurement,setting,value
"Cl.Cn1c(CCCC(=O)O)nc2cc(N(CCCl)CCCl)ccc21 [Form 1, bendamustine hydrochloride]",Solution Obtained?,"[1]; Acetic acid, 50 mg in 1 ml",Yes (50° C.)
same,Volume Added,[1]; Acetic acid,1000 µL
same,Solution Obtained?,"[1]; DMA, 50 mg in 500 μl",Yes (50° C.)
same,Volume Added,[1]; DMA,500 µL
same,Solution Obtained?,"[1]; DMF, 50 mg in 500 μl",Yes (50° C.)
same,Volume Added,[1]; DMF,500 µL
same,Solution Obtained?,"[1]; DMSO, 50 mg in 100 μl",Yes (50° C.)
same,Volume Added,[1]; DMSO,100 µL
same,Solution Obtained?,"[1]; Ethanol, 50 mg in 1 ml",Yes (50° C.)
same,Volume Added,[1]; Ethanol,1000 µL
same,Solution Obtained?,"[1]; Formamide, 50 mg in 1 ml",Yes (50° C.)
same,Volume Added,[1]; Formamide,1000 µL
same,Solution Obtained?,"[1]; Methanol, 50 mg in 100 μl",Yes (50° C.)
same,Volume Added,[1]; Methanol,100 µL
same,XRPD Analysis after maturation,[2]; Acetone,Form 1
same,XRPD Analysis after maturation,[2]; Acetonitrile,Form 1
same,XRPD Analysis after maturation,[2]; Anisole,Form 1
same,XRPD Analysis after maturation,[2]; DCM,Form 1
same,XRPD Analysis after maturation,[2]; DIPE,Form 1
same,XRPD Analysis after maturation,[2]; Diethyl ether,Form 1
same,XRPD Analysis after maturation,[2]; Dioxane,Form 1
same,XRPD Analysis after maturation,[2]; Ethanol,Form 1
same,XRPD Analysis after maturation,[2]; Ethyl acetate,Form 1
same,XRPD Analysis after maturation,[2]; Heptane,Form 1
same,XRPD Analysis after maturation,[2]; IPA,Form 1
same,XRPD Analysis after maturation,[2]; Isopropyl acetate,Form 1
same,XRPD Analysis after maturation,[2]; MIBK,Form 1
same,XRPD Analysis after maturation,[2]; Methyl acetate,Form 1
same,XRPD Analysis after maturation,[2]; Nitromethane,Form 1
same,XRPD Analysis after maturation,[2]; TBME,Form 1
same,XRPD Analysis after maturation,[2]; THF,Form 1
same,XRPD Analysis after maturation,[2]; Toluene,Form 1
same,XRPD Analysis after maturation,[2]; Water,degradant
same,purity after storage,[3]; 4° C./87% RH (5) and 60° C./75% RH (13) for 6 weeks,No large purity decreases
same,kinetic stability on storage,"[3]; 6 weeks at 4° C./34 to 76% RH, 25° C./43 to 75% RH and 60° C./11 to 75% RH",kinetically stable
same,form conversion on storage at high humidity,"[3]; 60° C./95% RH, 25° C. 94% RH and possibly 4° C./88% RH for 6, 6 and 2 weeks respectively",conversion of Form 1 to 2
same,form conversion under high humidity conditions,"[3]; ~90% RH, rate appears to increase with temperature",conversion of Form 1 of bendamustine hydrochloride to Form 2 was observed
same,solution pH,[4]; saturated aqueous solution of the solubility experiment,2.16
same,degradation of sample in aqueous solubility experiment,[4]; water,significant degradation occurred
same,aqueous solubility,"[4]; water, 25° C., 24 hours, significant degradation occurred",4500 µg/mL
same,change in crystallinity and purity during light stress test,"[5]; 250 watts/m2, 1 week, 25° C., hydrochloride",only a slight decrease in purity
same,stability to degradation in light,[5]; as compared to Form 2,more stable to degradation in light
same,XRPD,"[5]; blank wrapped in foil, 1 week in light box",No change
same,Purity (%),"[5]; blank wrapped in foil, 1 week in light box, listed as Form 1 blank, hydrochloride",97.3%
same,Purity (%),[5]; [9],95.9%
same,XRPD,[5]; [9],No change (sample brown in colour)
same,change on storage (XRPD),"[6]; 1 week at 40° C./75% RH, hydrochloride",no significant changes
same,change on storage (XRPD),[6]; 2 months at 25° C./94% RH,converted to a hydrate of bendamustine hydrochloride (Form 2)
same,change on storage (XRPD),[6]; 3 weeks at 40° C./11% RH,no significant changes
same,change on storage (XRPD),[6]; one month at 25° C./94% RH,in the process of converting to Form 2
same,LogP,[7]; octanol:ISA water,1.10
same,LogD,[7]; pH7.4,0.68
same,hygroscopicity,"[8]; GVS, 0 to 90% RH",low hygroscopicity
same,weight increase (hygroscopicity),[8]; between 0 and 90% relative humidity (RH),0.7%
same,solid form by XRPD re-analysis after GVS humidity cycles,"[8]; reanalysis under ambient conditions, hydrochloride",did not lead to a significant change in XRPD pattern

# From US8883836B2, “Solid forms of bendamustine hydrochloride” (Cephalon, Inc., priority 2008, dated 2014)
